Columns and labels:
Type in all cases: in vivo
[1] = Nephrotoxicity study; details: BALB/cJ mice, intravenous, 3 days after drug administration, ELISA, n = 3/group
[2] = Toxicity profile; details: healthy BALB/cJ mice, intravenous weekly for 3 weeks, DM1 and DM1–Bdd 0.75 mg/kg of drug content, CIS 10 mg/kg
[3] = Fluorescence imaging of Cy-peptide analogues; details: SHO mice, tail-vein injection 0.5 nmol, images 1 and 4 hours; in words

Compound | KIM-1 and/or NGAL in urine [1] | serum biochemical analysis for liver injury and renal function [2] | hematology (blood cell counts and morphologic features) ([2]; n = 4/group) | elimination and organ uptake by fluorescence imaging [3]
COc1cc2cc(c1Cl)N(C)C(=O)C[C@H](OC(=O)[C@H](C)N(C)C(=O)CCS)[C@]1(C)O[C@H]1[C@H](C)[C@@H]1C[C@@](O)(NC(=O)O1)[C@H](OC)/C=C/C=C(\C)C2 [DM1, N2'-deacetyl-N2'-(3-mercapto-1-oxopropyl)-maytansine] | continued induction | induced hepatic and renal toxicity | reticulocytosis without apparent anemia | –
Nc1ccn([C@@H]2O[C@H](CO)[C@@H](O)C2(F)F)c(=O)n1 [GEM, gemcitabine] | continued induction | – | – | –
CO[C@@]12[C@H](COC(N)=O)C3=C(C(=O)C(C)=C(N)C3=O)N1C[C@@H]1N[C@@H]12 [MIT, mitomycin] | continued induction | – | – | –
Cyanine5.5 [free Cy] | – | – | – | mainly taken up by liver and/or other organs

From article PMC8983499 (Cancer Research, 2022)
